# Test results from ChEMBL document CHEMBL5113530, “Butyrylation Meets Adipogenesis-Probed by a p300-Catalyzed Acylation-Specific Small Molecule Inhibitor: Implication in Anti-obesity Therapy” (J Med Chem, 2022).
# Activity calls are given as the source filed them. No cut-off for these calls is given here.
# Key:
# [1] = Toxicity in female Sprague-Dawley rat assessed as effect on body weight at 250 mg/kg, po administered as single dose measured on day 14 (Rvb =171.5 +/- 6.65 g); assay type: organism-based; details: in vivo, 336 h, time 14 day
# [2] = Toxicity in male Sprague-Dawley rat assessed as average water intake measured per day at 250 mg/kg, po administered as single dose measured on day 14 (Rvb =34 ml/day); assay type: organism-based; details: in vivo, 336 h, time 14 day
# [3] = Toxicity in male Sprague-Dawley rat assessed as effect on body weight at 250 mg/kg, po administered as single dose measured on day 14 (Rvb =231.13 +/- 18.38 g); assay type: organism-based; details: in vivo, 336 h, time 14 day
# [4] = Toxicity in female Sprague-Dawley rat assessed as average water intake measured per day at 1000 mg/kg, po administered as single dose measured on day 14 (Rvb =26 ml/day); assay type: organism-based; details: in vivo, 336 h, time 14 day
# [5] = Toxicity in female Sprague-Dawley rat assessed as average food intake at 250 mg/kg, po administered as single dose measured on day 14 (Rvb =15.95 g/day); assay type: organism-based; details: in vivo, 336 h, time 14 day
# [6] = Toxicity in female Sprague-Dawley rat assessed as average water intake measured per day at 500 mg/kg, po administered as single dose measured on day 14 (Rvb =26 ml/day); assay type: organism-based; details: in vivo, 336 h, time 14 day
# Mus musculus [7] = assay: Anti-obesity activity in db/db mouse assessed as daily food consumption […] at 50 mg/kg, po qd administered for 30 days and measured every week (reference value: 37.8 +/- 1.64 g); assay type: functional; details: time 30 day
# [8] = Toxicity in male Sprague-Dawley rat assessed as effect on body weight at 500 mg/kg, po administered as single dose measured on day 14 (Rvb =231.13 +/- 18.38 g); assay type: organism-based; details: in vivo, 336 h, time 14 day
# [9] = Mutagenicity in Salmonella typhimurium TA100 assessed as number of revertants measured per plate at 10 to 1000 incubated for 48 hrs in presence of rat liver S9 fraction by plate incorporation assay; assay type: toxicity; details: salmonella enterica subsp. enterica serovar typhimurium, s9, 48 h, dose 10-1000 µg
# 3T3-L1 [10] = assay: Anti-adipogenic activity against mouse 3T3-L1 cells assessed as downregulation of LEP mRNA expression at 25 uM measured after 7 days by qRT-PCR analysis; assay type: functional, cell-based; details: time 7.0 day
# [11] = Toxicity in female Sprague-Dawley rat assessed as average food intake at 250 mg/kg, po administered as single dose measured on day 7 (Rvb =15.65 g/day); assay type: organism-based; details: in vivo, 168 h, time 7 day
# [12] = Stability of compound in mouse 3T3-L1 cells measured after 6 days by LC-ESI-MS analysis; assay type: ADME, cell-based; details: 3t3-l1, 144 h, time 6 day
# 3T3-L1 [13] = assay: Anti-adipogenic activity against mouse 3T3-L1 cells assessed as upregulation of KDM4C mRNA expression at 25 uM measured after 7 days by qRT-PCR analysis; assay type: functional, cell-based; details: time 7.0 day
# [14] = Toxicity in male Sprague-Dawley rat assessed as effect on body weight at 250 mg/kg, po administered as single dose measured on day 1 (reference value: 174.75 +/- 7.61 g); assay type: organism-based; details: in vivo, 24 h, time 1 day
# [15] = Toxicity in female Sprague-Dawley rat assessed as effect on body weight at 500 mg/kg, po administered as single dose measured on day 7 (Rvb =169.81 +/- 6.57 g); assay type: organism-based; details: in vivo, 168 h, time 7 day
# 3T3-L1 [16] = assay: Cytotoxicity against in mouse 3T3-L1 cells assessed as effect on cellular oxidoreductase activity at 25 uM incubated for 6 days by MTT assay; assay type: toxicity, cell-based; details: 3t3-l1, 144 h, time 6 day
# 3T3-L1 [17] = assay: Anti-adipogenic activity against mouse 3T3-L1 cells assessed as downregulation of ACSS2 mRNA expression at 25 uM measured after 7 days by qRT-PCR analysis; assay type: functional, cell-based; details: time 7.0 day
# 3T3-L1 [18] = assay: Anti-adipogenic activity against mouse 3T3-L1 cells assessed as downregulation of CEBPA mRNA expression at 25 uM measured after 7 days by qRT-PCR analysis; assay type: functional, cell-based; details: time 7.0 day
# [19] = Toxicity in female Sprague-Dawley rat assessed as average water intake measured per day at 1000 mg/kg, po administered as single dose measured on day 7 (Rvb =21 ml/day); assay type: organism-based; details: in vivo, 168 h, time 7 day
# [20] = target: Histone acetyltransferase p300 (Homo sapiens) (UniProt Q09472); assay: Inhibition of recombinant full length His-tagged EP300 catalyzed butyrylation (unknown origin) expressed in baculovirus infected Sf21insect cells using Histone H3 as substrate at 25 uM preincubated with compound for 10 mins followed by butyryl-CoA addition and measured after 10 mins by Western blot analysis; details: Sf21, time 20.0 min
# Sequence of Histone acetyltransferase p300 (Homo sapiens) (Q09472 whole entry): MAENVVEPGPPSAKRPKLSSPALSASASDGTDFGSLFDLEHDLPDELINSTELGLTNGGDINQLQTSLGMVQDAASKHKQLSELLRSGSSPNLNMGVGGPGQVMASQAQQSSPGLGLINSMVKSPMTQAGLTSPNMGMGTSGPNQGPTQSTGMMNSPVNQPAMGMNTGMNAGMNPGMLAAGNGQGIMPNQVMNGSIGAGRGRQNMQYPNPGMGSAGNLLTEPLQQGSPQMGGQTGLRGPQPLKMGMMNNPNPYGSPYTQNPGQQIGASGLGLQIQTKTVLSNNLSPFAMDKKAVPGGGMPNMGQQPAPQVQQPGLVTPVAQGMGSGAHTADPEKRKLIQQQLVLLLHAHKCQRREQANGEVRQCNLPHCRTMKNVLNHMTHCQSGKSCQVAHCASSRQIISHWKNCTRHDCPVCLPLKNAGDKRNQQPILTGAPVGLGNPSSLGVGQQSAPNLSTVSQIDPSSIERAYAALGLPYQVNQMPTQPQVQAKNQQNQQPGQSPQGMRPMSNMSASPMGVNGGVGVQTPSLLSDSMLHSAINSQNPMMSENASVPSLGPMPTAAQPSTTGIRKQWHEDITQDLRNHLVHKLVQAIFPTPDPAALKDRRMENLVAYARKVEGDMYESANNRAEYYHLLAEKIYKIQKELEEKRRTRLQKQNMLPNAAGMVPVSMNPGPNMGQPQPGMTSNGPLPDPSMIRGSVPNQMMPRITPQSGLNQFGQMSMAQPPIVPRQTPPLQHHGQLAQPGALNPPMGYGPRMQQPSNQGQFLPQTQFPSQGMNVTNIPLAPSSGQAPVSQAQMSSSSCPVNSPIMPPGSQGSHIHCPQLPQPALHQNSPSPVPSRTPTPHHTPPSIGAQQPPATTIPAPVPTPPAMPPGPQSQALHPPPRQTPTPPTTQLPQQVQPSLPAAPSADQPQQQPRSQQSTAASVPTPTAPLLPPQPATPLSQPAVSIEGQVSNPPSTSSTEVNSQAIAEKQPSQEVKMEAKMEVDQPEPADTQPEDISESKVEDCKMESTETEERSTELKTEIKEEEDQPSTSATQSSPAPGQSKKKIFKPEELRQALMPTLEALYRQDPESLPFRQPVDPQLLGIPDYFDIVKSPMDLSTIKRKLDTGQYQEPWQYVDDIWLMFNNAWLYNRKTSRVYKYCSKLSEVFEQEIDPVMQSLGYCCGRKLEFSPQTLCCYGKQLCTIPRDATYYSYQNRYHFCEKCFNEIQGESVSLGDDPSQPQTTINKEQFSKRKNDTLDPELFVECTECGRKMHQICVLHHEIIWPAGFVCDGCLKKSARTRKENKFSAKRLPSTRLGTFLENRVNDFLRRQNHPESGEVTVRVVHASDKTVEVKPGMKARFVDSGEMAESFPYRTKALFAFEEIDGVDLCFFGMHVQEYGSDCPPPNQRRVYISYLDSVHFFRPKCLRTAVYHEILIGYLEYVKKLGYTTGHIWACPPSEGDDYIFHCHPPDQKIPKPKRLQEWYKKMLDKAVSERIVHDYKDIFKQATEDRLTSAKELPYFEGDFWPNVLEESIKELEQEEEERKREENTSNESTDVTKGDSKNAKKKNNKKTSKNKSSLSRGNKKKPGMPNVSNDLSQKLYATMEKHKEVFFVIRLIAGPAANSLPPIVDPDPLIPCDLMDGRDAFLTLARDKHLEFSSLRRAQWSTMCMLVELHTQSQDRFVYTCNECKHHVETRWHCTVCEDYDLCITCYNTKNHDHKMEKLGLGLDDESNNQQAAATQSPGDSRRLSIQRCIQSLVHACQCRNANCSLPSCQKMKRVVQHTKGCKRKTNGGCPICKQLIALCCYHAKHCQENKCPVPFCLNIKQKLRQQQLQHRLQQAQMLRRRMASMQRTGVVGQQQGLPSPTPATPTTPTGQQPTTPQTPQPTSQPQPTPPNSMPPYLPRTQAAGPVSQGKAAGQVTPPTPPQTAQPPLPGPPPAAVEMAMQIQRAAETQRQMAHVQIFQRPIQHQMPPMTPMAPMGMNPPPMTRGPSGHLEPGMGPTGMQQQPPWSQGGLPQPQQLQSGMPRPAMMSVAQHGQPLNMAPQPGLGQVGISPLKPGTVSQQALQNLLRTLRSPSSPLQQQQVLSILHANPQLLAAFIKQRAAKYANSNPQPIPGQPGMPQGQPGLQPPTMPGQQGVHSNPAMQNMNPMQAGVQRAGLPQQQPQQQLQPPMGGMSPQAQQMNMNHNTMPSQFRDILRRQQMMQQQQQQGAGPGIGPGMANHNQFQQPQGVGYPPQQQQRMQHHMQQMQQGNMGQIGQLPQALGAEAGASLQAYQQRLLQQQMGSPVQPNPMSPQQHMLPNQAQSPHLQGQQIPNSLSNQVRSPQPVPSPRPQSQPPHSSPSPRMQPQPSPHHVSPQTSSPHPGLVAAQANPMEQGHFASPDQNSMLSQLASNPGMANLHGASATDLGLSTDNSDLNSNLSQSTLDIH
# 3T3-L1 [21] = assay: Anti-adipogenic activity against mouse 3T3-L1 cells assessed as downregulation of PPARG mRNA expression at 25 uM measured after 7 days by qRT-PCR analysis; assay type: functional, cell-based; details: time 7.0 day
# [22] = Toxicity in male Sprague-Dawley rat assessed as average food intake at 250 mg/kg, po administered as single dose measured on day 14 (Rvb =21.24 g/day); assay type: organism-based; details: in vivo, 336 h, time 14 day
# 3T3-L1 [23] = assay: Anti-adipogenic activity against mouse 3T3-L1 cells at 25 uM incubated for 8 days by Oil Red O staining based spectrophotometric analysis; assay type: functional, cell-based; details: time 8.0 day
# [24] = tested on: Histone acetyltransferase p300 (Homo sapiens), Q09472 [C1438A]; assay: Inhibition of His-tagged EP300 C1438A mutant catalytic domain catalyzed butyrylation (unknown origin) expressed in Escherichia coli BL21 (DE3) using Histone H3 as substrate at 25 uM preincubated with compound for 10 mins followed by butyryl-CoA addition and measured after 10 mins by Western blot analysis; details: time 20.0 min
# Sequence of Histone acetyltransferase p300 (Homo sapiens), Q09472 [C1438A] (Q09472 whole entry C1438A, the tested form may be a part): as the sequence (Q09472 whole entry) above, with C1438A counted along it
# 3T3-L1 [25] = assay: Anti-adipogenic activity against mouse 3T3-L1 cells assessed as upregulation of TEAD4 mRNA expression at 25 uM measured after 7 days by qRT-PCR analysis; assay type: functional, cell-based; details: time 7.0 day
# [26] = Toxicity in female Sprague-Dawley rat assessed as effect on body weight at 500 mg/kg, po administered as single dose measured on day 1 (Rvb =152.21 +/- 6.58 g); assay type: organism-based; details: in vivo, 24 h, time 1 day
# [27] = Toxicity in male Sprague-Dawley rat assessed as effect on body weight at 1000 mg/kg, po administered as single dose measured on day 14 (Rvb =231.13 +/- 18.38 g); assay type: organism-based; details: in vivo, 336 h, time 14 day
# [28] = Toxicity in female Sprague-Dawley rat assessed as average water intake measured per day at 1000 mg/kg, po administered as single dose measured on day 1 (Rvb =25 ml/day); assay type: organism-based; details: in vivo, 24 h, time 1 day
# Mus musculus [29] = assay: Anti-obesity activity in db/db mouse assessed as reduction in H4K5 butyrylation level in liver at 50 mg/kg, po qd administered for 30 days by DAPI staining based immunofluorescence microscopic analysis; assay type: functional, organism-based; details: time 30.0 day
# [30] = Toxicity in male Sprague-Dawley rat assessed as average water intake measured per day at 500 mg/kg, po administered as single dose measured on day 7 (Rvb =30 ml/day); assay type: organism-based; details: in vivo, 168 h, time 7 day
compound,measurement,setting,value
COc1ccc(C(=O)C2=C3OC(C)(C)[C@@H](CC=C(C)C)C[C@@]34C[C@@H](CC=C(C)C)C(C)(C)[C@](CC=C(C)C)(C2=O)C4=O)cc1OC,Activity,[1],176.35 g
same,Activity,[2],34 mL
same,Activity,[3],244.21 g
same,Activity,[4],32 mL
same,Activity,[5],16.65 g/day
same,Activity,[6],26 mL
same,Activity,Mus musculus [7],34 g
same,Activity,[8],243.14 g
same,Activity,[9],Non-Toxic
same,Activity,3T3-L1 [10],Active
same,Activity,[11],16.32 g/day
same,Stability,[12],Stable
same,Activity,3T3-L1 [13],Active
same,Activity,[14],171.94 g
same,Activity,[15],176.55 g
same,Activity,3T3-L1 [16],Non-Toxic
same,Activity,3T3-L1 [17],Active
same,Activity,3T3-L1 [18],Active
same,Activity,[19],22 mL
same,inhibition,[20],Active
same,Activity,3T3-L1 [21],Active
same,Activity,[22],22.62 g/day
same,Activity,3T3-L1 [23],Active
same,inhibition,[24],Active
same,Activity,3T3-L1 [25],Active
same,Activity,[26],153.32 g
same,Activity,[27],226.19 g
same,Activity,[28],26 mL
same,Activity,Mus musculus [29],Active
same,Activity,[30],33 mL
